The record followed here is patent US20140187593A1, “DIAGNOSTIC TEST AND TREATMENT FOR A NE[…]” (priority 2012, published 2014).

The assay has as its system patients with VMAT2 mutation. As to the kind of experiment: Clinical response of the index case to vitamin B6 or folinic acid. Format: in vivo, human. The source says: The index case was a person with global developmental delay and abnormal movements. They had first been brought to medical attention with hypotonia, loss of acquired head control, and paroxysmal stereotyped episodes of persistent eye deviation and crying lasting hours. Video-EEG monitoring had excluded seizures, and a symptom diagnosis of oculogyric crisis had been made. Development had been normal initially, but had slowed after presentation. […] […] […] They had axial hypotonia and appendicular hypertonia specifically involving extensor muscles of upper and lower extremities. Deep tendon reflexes were 2+/4 and plantars flexor. […] Gait was parkinsonian with typical shuffling, posture was stooped, and postural reflexes diminished. They walked with bilateral alternating dystonia of hands and feet with intermittent toe walking and foot inversion, and was unable to tandem walk.

Turning to `Cc1ncc(CO)c(CO)c1O.Cl` [vitamin B6], the “Clinical improvement of symptoms” value is on record as “no improvement”. The value for `Nc1nc(=O)c2c([nH]1)NCC(CNc1ccc(C(=O)N[C@@H](CCC(=O)O)C(=O)O)cc1)N2C=O` (mixture of isomers) [folinic acid] was “no improvement”.
